# Test results: patent publication US20260041093A1, “Ionic Derivatives Of Aromatic Carboxylic Acid For Use As Plant Stimulants, Method For Stimulating Plants And Use Of These Derivatives For Manufacturing Compositions For Stimulating Plants” (FUNDACJA UNIWERSYTETU IM. ADAMA MICKIEWICZA W POZNANIU, priority 2022, published 2026)
# Like-named read-outs stand apart in the source and are kept apart here.
# Key:
# lettuce [1] = conditions: double application, 3-chlorosalicylate 100 mg/L, benzothiadiazole salt 50 mg/L
# Excerpt: The purpose of the study was to determine the effect of foliar spraying with test solutions on lettuce (Lactuca sativa L. ‘Zeralda’) plants. The plants were sprayed 7 and 14 days after transplanting to a permanent site. […] After another 7 days, drought stress was induced (plants in the selected combinations were not watered until symptoms of leaf wilting appeared), followed by proper watering of the plants again. Control plants were watered in turn to a constant weight. After 3 days after re-watering, chlorophyll fluorescence was measured (OJIP test, methodology described, among others, in Kalaji H. M., 2011. Impact of abiotic stress factors on chlorophyll fluorescence in plants of selected barley cultivars Hordeum vulgare L. SGGW Publishing House, Warsaw [https://badanieroslin.pl/wp-content/uploads/2018/11/Oddzialywanie-abiotycznych-czynnikow. . . ..pdf]) and the condition of the plants was assessed.
# The measurement was carried out after inducing drought stress, followed by re-watering the plants to a constant weight. […] This parameter is lowered by stresses.
# lettuce [2] = conditions: 3-chlorosalicylate 100 mg/L double application, benzothiadiazole salt 50 mg/L single application
# Method: The purpose of the study was to determine the effect of foliar spraying with test solutions on lettuce plants (Lactuca sativa L. ‘Zeralda’) under abiotic stress conditions—low temperature. After 7 and 14 days after transplanting the plants to a permanent place, spraying of the plants was carried out. […] After another 7 days, low temperature stress was induced—plants were grown in three glass chambers with a day temperature of 22° C. and night temperatures of 4, 12 and 20° C. until harvest.
# winter wheat = tested on: winter wheat
# Method: The experiment was established using the long strip method, in four repetitions Gross area of each plot was 48 m^2, while the harvest area was 23.25 m^2 net. Following variants of treatment were tested: • 1. Control—no stimulant application, standard fungicide programme • 2. Stimulant application at BBCH 32, standard fungicide programme • 3. Stimulant application at BBCH 32, no fungicide application • 4. Stimulant application at BBCH 55 and 10-12 days later, standard fungicide programme • 5. […] In this experiment, standard NPK fertilization was applied, using both bulk and liquid fertilizers.
# The experiment was established using the long strip method, in four repetitions Gross area of each plot was 48 m2, while the harvest area was 23.25 m2 net. Following variants of treatment were tested: • 1. Control—no stimulant application, standard fungicide programme, • 2. Stimulant application at BBCH 32, standard fungicide programme • 3. Stimulant application at BBCH 32, no fungicide application • 4. Stimulant application at BBCH 55 and 10-12 days later, standard fungicide programme • 5. […] In the experiment, uniform NPK fertilization was applied, using both bulk and liquid fertilizers.
# [3] = BBCH 32, standard fungicide protection, 80 mg/L, benzothiadiazole salt 30 mg/L
# [4] = BBCH 32, stimulant only, 80 mg/L, benzothiadiazole salt 30 mg/L
# [5] = BBCH 55, standard fungicide protection, 80 mg/L, benzothiadiazole salt 30 mg/L
# [6] = BBCH 55, without fungicide, 80 mg/L, benzothiadiazole salt 30 mg/L
# [7] = first sampling date, 80 mg/L, benzothiadiazole salt 30 mg/L
# [8] = last sampling date, late milk, 80 mg/L, benzothiadiazole salt 30 mg/L
compound,measurement,setting,value
C[N+](C)(C)CCO.O=C([O-])c1cccc(Cl)c1O [choline 3-chlorosalicylate],ABS/RC,lettuce [1]; Control (watered),1.48 b
same,DIo/RC,lettuce [1]; Control (watered),0.24 a
same,ETo/RC,lettuce [1]; Control (watered),1.08 b
same,F0,lettuce [1]; Control (watered),4877 a
same,FM,lettuce [1]; Control (watered),34278 a
same,FM/F0,lettuce [1]; Control (watered),7.32 c
same,Fv,lettuce [1]; Control (watered),29401 a
same,Fv/F0,lettuce [1]; Control (watered),6.32 c
same,Fv/FM,lettuce [1]; Control (watered),0.86 c
same,Pi_Abs (PSII functioning index calculated on the basis of energy absorption),lettuce [1]; Control (watered),12.74 days
same,TRo/RC,lettuce [1]; Control (watered),1.72 b
same,ABS/RC,lettuce [1]; Drought,1.20 a
same,DIo/RC,lettuce [1]; Drought,0.24 a
same,ETo/RC,lettuce [1]; Drought,0.81 a
same,F0,lettuce [1]; Drought,5524 a
same,FM,lettuce [1]; Drought,33908 a
same,FM/F0,lettuce [1]; Drought,6.16 ab
same,Fv,lettuce [1]; Drought,28384 b
same,Fv/F0,lettuce [1]; Drought,5.16 ab
same,Fv/FM,lettuce [1]; Drought,0.84 ab
same,Pi_Abs (PSII functioning index calculated on the basis of energy absorption),lettuce [1]; Drought,7.77 b
same,TRo/RC,lettuce [1]; Drought,1.44 a
same,"% dry matter (leaf), Average",lettuce [1],3.72 b %
same,"% dry matter (leaf), Drought",lettuce [1],3.55 b %
same,"% dry matter (leaf), Watered",lettuce [1],3.96 b %
same,"Head and root weight, Average",lettuce [1],72.5 a g/plant
same,"Head and root weight, Drought",lettuce [1],71.7 abc g/plant
same,"Head and root weight, Watered",lettuce [1],73.2 abc g/plant
same,"Head weight, Average",lettuce [1],51.3 a g/plant
same,"Head weight, Drought",lettuce [1],52.8 b g/plant
same,"Head weight, Watered",lettuce [1],50.6 ab g/plant
same,"RWC (relative water content), Watered",lettuce [1],73.2 ab %
same,"RWC, Average",lettuce [1],73.3 a %
same,"RWC, Drought",lettuce [1],71.9 ab %
same,"Head weight, 4° C.",lettuce [2]; night temperature 4° C.,48.9 b g/plant
same,"Head weight, 12° C.",lettuce [2]; night temperature 12° C.,52.8 b g/plant
same,"Head weight, 20° C.",lettuce [2]; night temperature 20° C.,65.3 b g/plant
same,increase in calcium uptake,winter wheat; [3],4%
same,increase in gluten content of wheat grain,winter wheat; [3],8%
same,increase in magnesium uptake,winter wheat; [3],4%
same,increase in nitrogen uptake,winter wheat; [3],7%
same,increase in phosphorus uptake,winter wheat; [3],8%
same,increase in potassium uptake,winter wheat; [3],6%
same,increase in protein content of wheat grain,winter wheat; [3],10%
same,increase in calcium uptake,winter wheat; [4],6%
same,increase in gluten content of wheat grain,winter wheat; [4],7%
same,increase in magnesium uptake,winter wheat; [4],5%
same,increase in nitrogen uptake,winter wheat; [4],7%
same,increase in phosphorus uptake,winter wheat; [4],9%
same,increase in potassium uptake,winter wheat; [4],8%
same,increase in protein content of wheat grain,winter wheat; [4],8%
same,increase in calcium uptake,winter wheat; [5],4%
same,increase in gluten content of wheat grain,winter wheat; [5],9%
same,increase in magnesium uptake,winter wheat; [5],5%
same,increase in nitrogen uptake,winter wheat; [5],14%
same,increase in phosphorus uptake,winter wheat; [5],12%
same,increase in potassium uptake,winter wheat; [5],6%
same,increase in protein content of wheat grain,winter wheat; [5],11%
same,increase in calcium uptake,winter wheat; [6],5%
same,increase in gluten content of wheat grain,winter wheat; [6],8%
same,increase in magnesium uptake,winter wheat; [6],6%
same,increase in nitrogen uptake,winter wheat; [6],16%
same,increase in phosphorus uptake,winter wheat; [6],12%
same,increase in potassium uptake,winter wheat; [6],5%
same,increase in protein content of wheat grain,winter wheat; [6],10%
same,fresh weight of aboveground part higher than control,"winter wheat; first sampling date (beginning of shooting), first of two sprayed objects (with / without fungicide, respectively), 80 mg/L, benzothiadiazole salt 30 mg/L",12%
same,dry root mass higher than control,winter wheat; [7],19%
same,fresh root mass higher than control,winter wheat; [7],15%
same,dry weight of aboveground part higher than control,"winter wheat; first sampling date, first of two sprayed objects, 80 mg/L, benzothiadiazole salt 30 mg/L",11%
same,fresh weight of aboveground part higher than control,"winter wheat; first sampling date, second of two sprayed objects (with / without fungicide, respectively), 80 mg/L, benzothiadiazole salt 30 mg/L",17%
same,dry weight of aboveground part higher than control,"winter wheat; first sampling date, second of two sprayed objects, 80 mg/L, benzothiadiazole salt 30 mg/L",16%
same,SPAD chlorophyll readings versus control,"winter wheat; first term, stimulant at BBCH 32, with or without fungicide",significantly higher
same,"more aboveground biomass, BBCH 55 treatment compared to control",winter wheat; [8],31%
same,"more aboveground biomass, BBCH 55 treatment compared to plants sprayed at an earlier stage",winter wheat; [8],12%
same,"more root biomass, BBCH 55 treatment compared to control",winter wheat; [8],25%
same,"more root biomass, BBCH 55 treatment compared to plants sprayed at an earlier stage",winter wheat; [8],17%
same,fresh and dry root weight versus other experimental facilities,winter wheat; second sampling date,comparable
same,fresh and dry matter yields versus other experimental facilities,"winter wheat; second sampling date, end of heading",comparable
same,SPAD chlorophyll readings,"winter wheat; second term, stimulant at BBCH 32 without fungicide versus other objects",higher
same,chlorophyll content of wheat leaves versus control,"winter wheat; third term, with or without fungicide",significantly higher
